In US5215986A, “5-hydroxy-2-pyrimidinylmethylene oxaza heterocycles” (Warner-Lambert Company, priority 1992, dated 1993):

How the values were obtained:
Cyclooxygenase = test: ARBC whole cell cyclooxygenase assay (PGF2α formation in RBL-1 cells); type: cell-based, rat; conditions: 10 μm, A23187 stimulated, PGF2α by RIA
Method: (§1) ARBL/ARBC Whole Cell 5-Lipoxygenase and Cyclooxygenase Assays The rat basophilic leukemia cell line (RBL 1) was obtained from the American Type Culture Collection (Rockville, Md.). Radioimmunoassay (RIA) kits of LTB4 and PGF2α were obtained from Amersham (Arlington Heights, Ill.) and Seragen (Boston, Mass.), respectively. RBL-1 cells are grown in suspension culture in Eagle's minimum essential medium supplemented with 12% fetal bovine serum at 37° C. in an incubator supplied with air 5% carbon dioxide. Cells are harvested by centrifugation. They are washed with cold phosphate buffered saline pH 7.4 (PBS; NaCl, 7.1 g; Na2 HPO4, 1.15 g; KH2 PO4, 0.2 g; and KCl, 0.2 g/l). Cells are finally suspended in PBS containing 1.0 mM calcium at a density of 2×10^6 cells/ml. Cells are incubated with and without test agent (in DMSO) (1% DMSO is without effect on arachidonic acid metabolism) for ten minutes at room temperature. Calcium ionophore A23187 (5 μM) is added and cells are incubated for seven minutes at 37° C. The reaction is stopped by chilling the tubes on ice for ten minutes. Cells are separated by centrifugation and the supernatant is stored at -20°. Aliquots (100 μl) are analyzed for LTB4 and PGF2α using radioimmunoassay kits as provided by the supplier. […]

5-Lipoxygenase = test: ARBL whole cell 5-lipoxygenase assay (LTB4 formation in RBL-1 cells); type: cell-based, rat; conditions: 10 μm concentration, A23187 stimulated, LTB4 by RIA
Method: as §1

## CN1OCC/C(=C\c2nc(C(C)(C)C)c(O)c(C(C)(C)C)n2)C1=O [(E)-4-[[4,6-Bis(1,1-dimethylethyl)-5-hydroxy-2-pyrimidinyl]methylene]tetrahydro-2-methyl-2H-1,2-oxazin-3-one]
Cyclooxygenase
  inhibition for ARBC: 88%
5-Lipoxygenase
  inhibition for ARBL: 84%
